From patent publication US20260022142A1, “MACROCYCLIC IMMUNOMODULATORS” (Bristol-Myers Squibb Company, priority 2022, published 2026) come the findings set out here.

Bridge positions count the residues as written; N and C are the ends. Square brackets hold non-standard residues; d marks the D form. Peptide text beside a SMILES is read from it. * marks the point of attachment. ξ: configuration not given here. Phe(4-COOH) = N[C@@H](Cc1ccc(C(=O)O)cc1)C(=O)O; Bip = N[C@@H](Cc1ccc(-c2ccccc2)cc1)C(=O)O; Phe(3-Me) = Cc1cccc(C[C@H](N)C(=O)O)c1; Cha = N[C@@H](CC1CCCCC1)C(=O)O; Thr(3ξ) = CC(O)[C@H](N)C(=O)O; Carboxymethyl = O=C(O)C*; Orn = NCCC[C@H](N)C(=O)O; Aun = NCCCCCCCCCCC(=O)O; Dab = NCC[C@H](N)C(=O)O; Dap = NC[C@H](N)C(=O)O; AEEA = NCCOCCOCC(=O)O

In this test the target is T1, PD-1/PD-L1 interaction (PE-labeled human PD-L1-Ig binding to Jurkat cell line over-expressing human PD-1) (Homo sapiens, UniProt Q15116).
T1 construct: expressed in transfected cells; host or cells: Jurkat
T1 sequence (Q15116 25-288): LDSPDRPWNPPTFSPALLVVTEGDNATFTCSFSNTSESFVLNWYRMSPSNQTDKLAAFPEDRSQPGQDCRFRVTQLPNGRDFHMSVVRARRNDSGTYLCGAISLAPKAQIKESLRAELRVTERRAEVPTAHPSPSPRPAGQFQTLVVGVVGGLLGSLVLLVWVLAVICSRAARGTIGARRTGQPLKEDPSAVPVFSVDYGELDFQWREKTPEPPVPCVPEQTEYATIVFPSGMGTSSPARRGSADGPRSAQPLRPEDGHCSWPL
Put plainly: Jurkat-PD-1 Cell Binding High-Content Screening Assay (CBA). The format is cell-based. The note with it: Jurkat cell line over-expressing human PD-1; PE-labeled PD-L1-Ig 20 nM final; read-out: Jurkat hPD1-PDL1 IC50. Summed up: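 Human PD-L1-Ig carrying a covalent PE label on its Ig tag serves as the probe, applied at 20 nM final to compound-treated (2 h, 37° C) Jurkat-hPD-1 cells in medium with 10% fetal calf serum. After one hour, fixation and nuclear staining precede high-content image analysis.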
By IC50 is commonly meant the concentration needed to halve the response being measured. On to `Cc1cccc(C[C@@H]2NC(=O)[C@H](CC(=O)O)NC(=O)[C@H](Cc3ccc(OCC(=O)O)cc3)NC(=O)[C@H](CN)NC(=O)CSC[C@@H](C(=O)N[C@@H](CCN)C(=O)NCCOCCOCC(=O)NCCCCCCCCCCC(=O)O)NC(=O)[C@H](C(C)O)NC(=O)[C@H](C(C)C)NC(=O)[C@H](CC3CCCCC3)NC(=O)[C@H](CCN)NC(=O)[C@@H](CC(C)C)NC(=O)[C@H](CCCN)NC(=O)[C@H](Cc3ccc(O)cc3)NC(=O)[C@H](Cc3ccc(-c4ccccc4)cc3)NC(=O)[C@H](C(C)C)NC2=O)c1` (stereo partly drawn) [Compound 2587] ({CH2CO}-[Dap]Y(Carboxymethyl)D[Phe(3-Me)]V[Bip]Y[Orn][dL][Dab][Cha]V[Thr(3ξ)]C[Dab][AEEA][Aun]-OH; thioether N-14), for which the IC50 came out at 8.8 nM.
With `Cc1cccc(C[C@@H]2NC(=O)[C@H](CC(=O)O)NC(=O)[C@H](Cc3ccc(OCC(=O)O)cc3)NC(=O)[C@H](CN)NC(=O)CSC[C@@H](C(=O)N[C@@H](CCN)C(=O)NCCOCCOCC(=O)NCCCCCCCCCCC(=O)O)NC(=O)[C@H](CCCN)NC(=O)[C@H](C(C)C)NC(=O)[C@H](CC3CCCCC3)NC(=O)[C@H](CCN)NC(=O)[C@@H](CC(C)C)NC(=O)[C@H](CCCN)NC(=O)[C@H](Cc3ccc(O)cc3)NC(=O)[C@H](Cc3ccc(-c4ccccc4)cc3)NC(=O)[C@H](C(C)C)NC2=O)c1` [Compound 2588] ({CH2CO}-[Dap]Y(Carboxymethyl)D[Phe(3-Me)]V[Bip]Y[Orn][dL][Dab][Cha]V[Orn]C[Dab][AEEA][Aun]-OH; thioether N-14), the IC50 came out at 5.3 nM.
As for `Cc1cccc(C[C@@H]2NC(=O)[C@H](CC(=O)O)NC(=O)[C@H](Cc3ccc(OCC(=O)O)cc3)NC(=O)[C@H](CN)NC(=O)CSC[C@@H](C(=O)N[C@@H](CCCCN)C(=O)NCCCCCCCCCCC(=O)O)NC(=O)[C@H](C(C)O)NC(=O)[C@H](C(C)C)NC(=O)[C@H](CC3CCCCC3)NC(=O)[C@H](CCN)NC(=O)[C@@H](CC(C)C)NC(=O)[C@H](CCCN)NC(=O)[C@H](Cc3ccc(O)cc3)NC(=O)[C@H](Cc3ccc(-c4ccccc4)cc3)NC(=O)[C@H](C(C)C)NC2=O)c1` (stereo partly drawn) [Compound 2589] ({CH2CO}-[Dap]Y(Carboxymethyl)D[Phe(3-Me)]V[Bip]Y[Orn][dL][Dab][Cha]V[Thr(3ξ)]CK[Aun]-OH; thioether N-14), the IC50 amounted to 13.6 nM.
With `Cc1cccc(C[C@@H]2NC(=O)[C@H](CC(=O)O)NC(=O)[C@H](Cc3ccc(OCC(=O)O)cc3)NC(=O)[C@H](CN)NC(=O)CSC[C@@H](C(=O)N[C@@H](CCCCN)C(=O)NCCCCCCCCCCC(=O)O)NC(=O)[C@H](CCCN)NC(=O)[C@H](C(C)C)NC(=O)[C@H](CC3CCCCC3)NC(=O)[C@H](CCN)NC(=O)[C@@H](CC(C)C)NC(=O)[C@H](CCCN)NC(=O)[C@H](Cc3ccc(O)cc3)NC(=O)[C@H](Cc3ccc(-c4ccccc4)cc3)NC(=O)[C@H](C(C)C)NC2=O)c1` [Compound 2590] ({CH2CO}-[Dap]Y(Carboxymethyl)D[Phe(3-Me)]V[Bip]Y[Orn][dL][Dab][Cha]V[Orn]CK[Aun]-OH; thioether N-14), the IC50 is 9.5 nM.
As to `Cc1cccc(C[C@@H]2NC(=O)[C@H](CC(=O)O)NC(=O)[C@H](Cc3ccc(OCC(=O)O)cc3)NC(=O)[C@H](CN)NC(=O)CSC[C@@H](C(=O)NCCOCCOCC(=O)N[C@@H](CCN)C(=O)NCCCCCCCCCCC(=O)O)NC(=O)[C@H](C(C)O)NC(=O)[C@H](C(C)C)NC(=O)[C@H](CC3CCCCC3)NC(=O)[C@H](CCN)NC(=O)[C@@H](CC(C)C)NC(=O)[C@H](CCCN)NC(=O)[C@H](Cc3ccc(O)cc3)NC(=O)[C@H](Cc3ccc(-c4ccccc4)cc3)NC(=O)[C@H](C(C)C)NC2=O)c1` (stereo partly drawn) [Compound 2591] ({CH2CO}-[Dap]Y(Carboxymethyl)D[Phe(3-Me)]V[Bip]Y[Orn][dL][Dab][Cha]V[Thr(3ξ)]C[AEEA][Dab][Aun]-OH; thioether N-14), the IC50 turned out to be 9.5 nM.
On to `Cc1cccc(C[C@@H]2NC(=O)[C@H](CC(=O)O)NC(=O)[C@H](Cc3ccc(OCC(=O)O)cc3)NC(=O)[C@H](CN)NC(=O)CSC[C@@H](C(=O)NCCOCCOCC(=O)N[C@@H](CCN)C(=O)NCCCCCCCCCCC(=O)O)NC(=O)[C@H](CCCN)NC(=O)[C@H](C(C)C)NC(=O)[C@H](CC3CCCCC3)NC(=O)[C@H](CCN)NC(=O)[C@@H](CC(C)C)NC(=O)[C@H](CCCN)NC(=O)[C@H](Cc3ccc(O)cc3)NC(=O)[C@H](Cc3ccc(-c4ccccc4)cc3)NC(=O)[C@H](C(C)C)NC2=O)c1` [Compound 2592] ({CH2CO}-[Dap]Y(Carboxymethyl)D[Phe(3-Me)]V[Bip]Y[Orn][dL][Dab][Cha]V[Orn]C[AEEA][Dab][Aun]-OH; thioether N-14), for which the IC50 was determined as 10.8 nM.
On to `CC(C)C[C@H]1NC(=O)[C@H](CCCN)NC(=O)[C@H](C(C)C)NC(=O)[C@H](Cc2ccc(-c3ccccc3)cc2)NC(=O)[C@H](C(C)C)NC(=O)[C@H](Cc2c[nH]c3ccccc23)NC(=O)[C@H](CC(=O)O)NC(=O)[C@H](Cc2ccc(C(=O)O)cc2)NC(=O)[C@H](Cc2ccc(OCC(=O)O)cc2)NC(=O)CSC[C@@H](C(=O)NCCOCCOCC(=O)N[C@@H](CCCCN)C(=O)NCCCCCCCCCCC(=O)O)NC(=O)[C@H](CCCCN)NC(=O)[C@H](C(C)C)NC(=O)[C@H](CC2CCCCC2)NC(=O)[C@H](CCN)NC1=O` [Compound 2593] ({CH2CO}-Y(Carboxymethyl)[Phe(4-COOH)]DWV[Bip]V[Orn][dL][Dab][Cha]VKC[AEEA]K[Aun]-OH; thioether N-14), for which the IC50 turned out to be 18.4 nM.
Take `CC(C)C[C@H]1NC(=O)[C@H](CCCN)NC(=O)[C@H](C(C)C)NC(=O)[C@H](Cc2ccc(-c3ccccc3)cc2)NC(=O)[C@H](C(C)C)NC(=O)[C@H](Cc2c[nH]c3ccccc23)NC(=O)[C@H](CC(=O)O)NC(=O)[C@H](Cc2ccc(OCC(=O)O)cc2)NC(=O)[C@H](CN)NC(=O)CSC[C@@H](C(=O)NCCOCCOCC(=O)N[C@@H](CCCCN)C(=O)NCCCCCCCCCCC(=O)O)NC(=O)[C@H](CCCCN)NC(=O)[C@H](C(C)C)NC(=O)[C@H](CC2CCCCC2)NC(=O)[C@H](CCN)NC1=O` [Compound 2595] ({CH2CO}-[Dap]Y(Carboxymethyl)DWV[Bip]V[Orn][dL][Dab][Cha]VKC[AEEA]K[Aun]-OH; thioether N-14): the IC50 came out at 34.1 nM.
Consider `Cc1cccc(C[C@@H]2NC(=O)[C@H](CC(=O)O)NC(=O)[C@H](Cc3ccc(OCC(=O)O)cc3)NC(=O)[C@H](CN)NC(=O)CSC[C@@H](C(=O)NCCOCCOCC(=O)N[C@@H](CCCCN)C(=O)NCCCCCCCCCCC(=O)O)NC(=O)[C@H](CN)NC(=O)[C@H](C(C)C)NC(=O)[C@H](CC3CCCCC3)NC(=O)[C@H](CCN)NC(=O)[C@@H](CC(C)C)NC(=O)[C@H](CCCN)NC(=O)[C@H](C(C)C)NC(=O)[C@H](Cc3ccc(-c4ccccc4)cc3)NC(=O)[C@H](C(C)C)NC2=O)c1` [Compound 2596] ({CH2CO}-[Dap]Y(Carboxymethyl)D[Phe(3-Me)]V[Bip]V[Orn][dL][Dab][Cha]V[Dap]C[AEEA]K[Aun]-OH; thioether N-14), for which the IC50 is 9.6 nM.
For the compound `Cc1cccc(C[C@@H]2NC(=O)[C@H](CC(=O)O)NC(=O)[C@H](Cc3ccc(OCC(=O)O)cc3)NC(=O)[C@H](CN)NC(=O)CSC[C@@H](C(=O)NCCOCCOCC(=O)N[C@@H](CCCCN)C(=O)NCCCCCCCCCCC(=O)O)NC(=O)[C@H](CCCN)NC(=O)[C@H](C(C)C)NC(=O)[C@H](CC3CCCCC3)NC(=O)[C@H](CCN)NC(=O)[C@@H](CC(C)C)NC(=O)[C@H](CCCN)NC(=O)[C@H](C(C)C)NC(=O)[C@H](Cc3ccc(-c4ccccc4)cc3)NC(=O)[C@H](C(C)C)NC2=O)c1` [Compound 2597] ({CH2CO}-[Dap]Y(Carboxymethyl)D[Phe(3-Me)]V[Bip]V[Orn][dL][Dab][Cha]V[Orn]C[AEEA]K[Aun]-OH; thioether N-14), the IC50 was 8.9 nM.
Under `Cc1cccc(C[C@@H]2NC(=O)[C@H](CC(=O)O)NC(=O)[C@H](Cc3ccc(OCC(=O)O)cc3)NC(=O)[C@H](CN)NC(=O)CSC[C@@H](C(=O)NCCOCCOCC(=O)N[C@@H](CCCCN)C(=O)NCCCCCCCCCCC(=O)O)NC(=O)[C@H](CCCNC(=N)N)NC(=O)[C@H](C(C)C)NC(=O)[C@H](CC3CCCCC3)NC(=O)[C@H](CCN)NC(=O)[C@@H](CC(C)C)NC(=O)[C@H](CCCN)NC(=O)[C@H](C(C)C)NC(=O)[C@H](Cc3ccc(-c4ccccc4)cc3)NC(=O)[C@H](C(C)C)NC2=O)c1` [Compound 2598] ({CH2CO}-[Dap]Y(Carboxymethyl)D[Phe(3-Me)]V[Bip]V[Orn][dL][Dab][Cha]VRC[AEEA]K[Aun]-OH; thioether N-14) stands 10.6 nM; under `CC(C)C[C@H]1NC(=O)[C@H](CCCN)NC(=O)[C@H](C(C)C)NC(=O)[C@H](Cc2ccc(-c3ccccc3)cc2)NC(=O)[C@H](C(C)C)NC(=O)[C@H](Cc2c[nH]c3ccccc23)NC(=O)[C@H](CC(=O)O)NC(=O)[C@H](Cc2ccc(OCC(=O)O)cc2)NC(=O)[C@H](Cc2ccc(OCC(=O)O)cc2)NC(=O)CSC[C@@H](C(=O)NCCOCCOCC(=O)N[C@@H](CCCCN)C(=O)NCCCCCCCCCCC(=O)O)NC(=O)[C@H](CCCN)NC(=O)[C@H](C(C)C)NC(=O)[C@H](CC2CCCCC2)NC(=O)[C@H](CCN)NC1=O` [Compound 2599] ({CH2CO}-Y(Carboxymethyl)Y(Carboxymethyl)DWV[Bip]V[Orn][dL][Dab][Cha]V[Orn]C[AEEA]K[Aun]-OH; thioether N-14), 8.2 nM; under `CC(C)C[C@H]1NC(=O)[C@H](CCCN)NC(=O)[C@H](C(C)C)NC(=O)[C@H](Cc2ccc(-c3ccccc3)cc2)NC(=O)[C@H](C(C)C)NC(=O)[C@H](Cc2c[nH]c3ccccc23)NC(=O)[C@H](CC(=O)O)NC(=O)[C@H](Cc2ccc(OCC(=O)O)cc2)NC(=O)[C@H](Cc2ccc(OCC(=O)O)cc2)NC(=O)CSC[C@@H](C(=O)NCCOCCOCC(=O)N[C@@H](CCCCN)C(=O)NCCCCCCCCCCC(=O)O)NC(=O)[C@H](CN)NC(=O)[C@H](C(C)C)NC(=O)[C@H](CC2CCCCC2)NC(=O)[C@H](CCN)NC1=O` [Compound 2600] ({CH2CO}-Y(Carboxymethyl)Y(Carboxymethyl)DWV[Bip]V[Orn][dL][Dab][Cha]V[Dap]C[AEEA]K[Aun]-OH; thioether N-14), 10.3 nM.
